The values that follow come from patent US20160235749A1, “MICRO-PARTICULATED NANOCAPSULES CONTAINING LOPINAVIR WITH ENHANCED ORAL BIOAVAILABILITY AND EFFICACY” (priority 2015, published 2016).

A short description of series [1]: Pharmacokinetic studies in rats (LPV plasma levels by LC-MS/MS). The series is classed as in vivo. The settings on record: male, Sprague-Dawley, rat. How it is done:
Sprague-Dawley male rats weighing 270-300 g were used and were separated randomly into seven groups with 4-8 animals per group to evaluate the biofate of LPV in different formulations. The animals were housed in SPF conditions, fasted overnight (12-14 h prior to the experiment) with free access to water. The animals were given a dose of 10 mg/kg LPV with or without RTV, always at the same ratio as the Kaletra® administered orally, using gavage. The groups were orally administered according to the following experimental conditions: 1 ml of Kaletra® oral solution (LPV 80 mg/RTV 20 mg/ml) prepared by diluting the purchased commercial solution with 1:1:1 ethanol:propylene glycol:DDW to a concentration of LPV 3 mg/RTV 0.75 mg/ml; and microparticulate formulations, F[I]-F[III] prepared by dispersing the NCs embedded in MCPs in DDW to the final concentration of 40 mg/ml. Blood samples (400-500 μl) were withdrawn from the tail vein at 0, 0.5, 1, 2, 4, 8, 12 and 24 h. Saline solution was given to the animals after 30 min and then again after 3 h. The blood samples were collected in heparin containing tubes. The samples were immediately centrifuged at 10,000 rpm for 5 min, after which 200-300 μl of plasma samples were transferred to new tubes and stored at −80° C. until further analysis by LC-MS/MS as described below.
The blood samples were treated by protein precipitation in methanol, following 15 min centrifuge at 10,000 rpm. 25 ng of quinoxaline (QX) dissolved in methanol were added to each sample, as an internal standard. The supernatant layer was collected and the samples were injected into an LC-MS/MS device under the following conditions: using a Phenomenex Kenetex column (RP-C18, 50×2.1 mm, 2.6 μm, 100 A) in gradient mode; the mobile phase consisted of A=methanol/formic acid 99.9/0.1 and B=water/formic acid 99.9/0.1; the A:B ratio was 58:42 at t=0 min, during the first 1.5 min the ratio changed gradually to A:B 80:20 and remained steady until 2.1 min. […] The flow rate was maintained at 0.35 ml/min, and the column temperature was maintained at 35° C. LC-MS/MS analysis was performed with a thermo scientific Accela HPLC system coupled with a TSQ Quantum Access MAX detector in positive ionization mode. Detection and quantification were carried out by multiple-reaction monitoring with transitions from m/z 629.3 to 156 for LPV and from m/z 313.1 to 246 for QX. The tested samples were quantified against a calibration curve in the range of 0-100 ng/ml.
The change in LPV plasma concentrations following intravenous (i.v.) administration of LPV alone and combined with RTV in an aqueous solution and the pharmacokinetic (PK) profile of LPV following oral administration of various formulations is depicted in FIG. 10. […] The absolute bioavailability (F) of LPV at all dosage forms was calculated relative to the AUC (area under the curve) yielded by i.v. administration of LPV and RTV at the ratio of 4:1 (F=1.0) since the same combination of LPV and RTV, when administered orally, is considered the standard of PI care for HIV-linfected patients.

The nature of series [2]: LPV in-vitro release profile experiment. Type of series: physicochemical. As to conditions: 0.1% Tween 80 release medium. How it is done: LPV in-vitro release kinetic experiments were carried out using the apparatus (VanKel VK7000 with a VK […] pump) comprised of six vessels containing 300 ml of 0.1% Tween 80 at 37° C. with USP paddles rotating at a speed of 50 rpm. The three formulations (F[I]-F[III]) were added to the different vessels at a LPV quantity equivalent to maintain sink conditions (10% of the pre-determined solubility). […] The samples were filtered using 0.45 μm PVDF filter and 500 μl from the filtrate was diluted in 500 μl methanol. These samples were comprised of free and encapsulated LPV, since LPV NCs diameter size is about 200 nm and the NCs can diffuse via 0.45 μm membrane pores. The remaining filtrate was then transferred to diafiltration membrane vivaspin 6 (MWCO 300,000 purchased from Sartorius Stedim Biotech) and centrifuged for 15 min at 4000 rpm. […] All samples were analyzed using HPLC. […] The graphs display both the total amount of LPV released from the MCPs, as free dissolved molecules and the LPV molecules still entrapped in the NCs, as detected following filtration of the dissolution samples through 0.45 μm PVDF filters (dimond-shaped points), as well as the free dissolved LPV molecules fraction only, as detected following a second filtration using 300,000 MW cut off vivaspin membranes which retained the NCs (square points). […]

A short description of series [3]: LPV solubility test in 0.1% Tween 80. Type of series: physicochemical. The settings on record: 0.1% Tween 80 solution, aqueous with cosolvent or surfactant or cyclodextrin, thermodynamic from solid; 0.1% Tween 80, pH 7.4, 37° C., 3 h incubation. How it is done: A solubility test was performed prior to the in-vitro release profile experiment to ensure that sink conditions would prevail by adding 10 mg LPV to 10 ml of 0.1% Tween 80 pre-warmed to 37° C. in a beaker. The pH was adjusted to 7.4 and the Tween solution was kept at 37° C. and rotated at 150 rpm for 3 h. Then, 5 ml aliquots were taken and filtered using a 0.45 μm PVDF filter and diluted with methanol to a final dilution factor of 10.

Series [4] can be described thus: Pharmacokinetic studies in rats (LPV plasma levels by LC-MS/MS). Type of series: in vivo. As to conditions: male, Sprague-Dawley, rat, oral, 10 mg/kg, read-out: absolute bioavailability compared to i.v. LPV solution.
Where [5] appears, read: plasma, rats, oral, 10 mg/kg LPV.

≈ marks a conversion by molar mass, not a printed value. Read-outs that look alike come from different tables or passages of the source.

Turning to `Cc1cccc(C)c1OCC(=O)N[C@@H](Cc1ccccc1)[C@@H](O)C[C@H](Cc1ccccc1)NC(=O)[C@H](C(C)C)N1CCCNC1=O` [LPV, (2S)—N-[(2S,4S,5S)-5-[2-(2,6-dimethylphenoxy)acetamido]-4-hydroxy-1,6-diphenylhexan-2-yl]-3-methyl-2-(2-oxo-1,3-diazinan-1-yl)butanamide], the “decrease in Cmax compared to Kaletra® oral solution” value in series [1] (in vivo, po) is 3 fold. The AUC – broadly, the area under the concentration-time curve, a measure of exposure – in series [1] (plasma, iv, rats, 10 mg/kg LPV) was 8000 ± 1220 ng·h/mL; in series [1] (setting [5]), 1910 ± 324 ng·h/mL. For the same compound, the clearance (commonly the volume of plasma or blood freed of the substance per unit of time) in series [1] (plasma, iv, rats, 10 mg/kg LPV) was 21.1 mL/min/kg. For the same compound, the half-life – broadly, how long it takes for the measured level to halve – in series [1] (plasma, iv, rats, 10 mg/kg LPV) was 1.2 ± 0.2 h; in series [1] (setting [5]), 4.8 ± 0.9 h. In addition, the Cmax in series [1] (plasma, iv, rats, i.v., 10 mg/kg LPV, read-out: Cmax (extrapolated plasma concentration at T0)) is 2780 ± 203 ng/mL; in series [1] (plasma, rats, oral, 10 mg/kg LPV, read-out: Cmax), 780 ± 246 ng/mL. For the same compound, the bioavailability (usually dose-corrected exposure relative to a reference, in per cent) in series [1] (plasma, oral, 10 mg/kg, rats, oral, read-out: absolute bioavailability compared to LPV:RTV 4:1 i.v.) came to 5%; in series [4], 24%. Besides, the “LPV solubility at pH 1.2” value in series [2] is “low solubility below HPLC detection limit”. The solubility (commonly how much of the substance goes into solution per volume) at 3 h in series [3] worked out at 72.7 µg/mL (≈ 116 µM).
